The text below walks through data of patent US20240101570A1 (AMGEN INC., priority 2020, published 2024).

Structures are written as SMILES. A value given as a limit tells only on which side of the number the result lay.

In one assay the test system is HCT116 MTAP null cells. Description: HCT116 MTAP null cell proliferation / viability (CellTiter-Glo, 6 days). It is filed as cell-based. Conditions: HCT116-MTAP null, 144 h, HCT116 MTAP null cells, 6 days, CellTiter-Glo; read-out: HCT-116 MTAP null IC50. The method, then:
(§1) HCT116 MTAP null and WT cells were seeded in 96-well tissue culture plates in RPMI 1640 media+10% fetal bovine serum. Plates were incubated overnight at 37° C. and 5% CO2. Cells were then treated with an 8- or 9-point serial dilution of compound, using a top concentration of 1, or 10 μM, 1:3 serial dilution steps and, a DMSO-only control. Cells were incubated in the presence of drug for 6 days. Effects on cell viability were measured with the CellTiter-Glo® Luminescent Cell Viability Assay (Promega) per manufacturer's recommendation. Assay plates were read on an EnVision™ Multilabel Reader using the Ultra-Sensitive luminescence module. IC50 values were calculated with GraphPad Prism v 5.01 using symmetrical sigmoidal dose-response least squares fit with Hill slope fixed to −1 and top constrain to 100% or GeneData Screener using a 4-parameter logistic model to fit dose response curves.
(§2) Alternatively, compounds could be assayed with a 384 well plate format:
(§3) Compounds were pre-spotted into 384 well plates with a 22-point serial dilution of compound, using a top concentration of 10 or 50 μM, 1:2 serial dilution steps and, a DMSO-only control. HCT116 MTAP null and WT cells were then seeded as above and after 6 days effects on cell viability were measured with the CellTiter-Glo® Luminescent Cell Viability Assay (Promega). Assay plates were read as above and IC50 values were calculated with GeneData Screener using a 4-parameter logistic model to fit dose response curves. The reported IC50 represents the value where the curve transits 50% of control.

The next assay deals with HCT116 WT cells. Description: HCT116 WT cell proliferation / viability (CellTiter-Glo, 6 days). It is filed as cell-based. The settings on record: Homo sapiens, HCT-116, 144 h, HCT116 WT cells, 6 days, CellTiter-Glo; read-out: HCT-116 WT IC50. As for the experimental part: as §1, §2, §3

On to `CCOc1ccc(CN(C(=O)c2cc3c4c(c(N)nc3cn2)[C@@H](C)OC4)[C@H](C)COC)nn1` [Example 397, (3R)-4-amino-N-((6-ethoxy-3-pyridazinyl)methyl)-N-((2R)-1-methoxy-2-propanyl)-3-methyl-1,3-dihydrofuro[3,4-c][1,7]naphthyridine-8-carboxamide], for which the values for the IC50 in the assay on HCT116 MTAP null cells and in the assay on HCT116 WT cells were 55 nM and 1100 nM, respectively.

On to `Nc1nc2cc(Cl)c(C(=O)N(Cc3ccc(C(F)(F)F)nn3)C3CCC3)cc2c2c1COC2` [Example 505, 4-amino-7-chloro-N-cyclobutyl-N-((6-(trifluoromethyl)-3-pyridazinyl)methyl)-1,3-dihydrofuro[3,4-c]quinoline-8-carboxamide], for which the IC50 is 22 nM in the assay on HCT116 MTAP null cells and 662 nM in the assay with HCT116 WT cells.

Take `CC(C)N(Cc1ccc(C(F)(F)F)cn1)C(=O)c1ccc2nc(N)c3ccncc3c2c1` [Example 754, 5-amino-N-(2-propanyl)-N-((5-(trifluoromethyl)-2-pyridinyl)methyl)benzo[c][2,6]naphthyridine-9-carboxamide]: the IC50 in the assay on HCT116 MTAP null cells was found to be 24 nM; with HCT116 WT cells, 370 nM.

With `C[C@H](c1ncccn1)N(Cc1ccc(C(F)F)cn1)C(=O)c1ccc2nc(N)c3c(c2c1)CCC3` [Example 623, 4-amino-N-((5-(difluoromethyl)-2-pyridinyl)methyl)-N-((1R)-1-(2-pyrimidinyl)ethyl)-2,3-dihydro-1H-cyclopenta[c]quinoline-8-carboxamide], the IC50 worked out at 15 nM in the assay with HCT116 MTAP null cells and 148 nM in the assay with HCT116 WT cells.

Take `Cc1cc2nc(N)c3c(cnn3C)c2cc1C(=O)N(C)Cc1ccc(C(F)(F)F)cn1` [Example 520, 4-amino-N,3,7-trimethyl-N-((5-(trifluoromethyl)-2-pyridinyl)methyl)-3H-pyrazolo[3,4-c]quinoline-8-carboxamide]: the IC50 with HCT116 MTAP null cells is 149 nM; in the assay on HCT116 WT cells, 9060 nM.

On to `C[C@@H](c1ccc(C(F)(F)F)cn1)N(C)C(=O)c1ccc2nc(N)c3cnn(C)c3c2c1` (single isomer, unassigned) [Example 601], for which the IC50 was determined as 997 nM in the assay with HCT116 MTAP null cells and 21200 nM in the assay with HCT116 WT cells.

`CC(C)N(Cc1ccc(C2CC2)nc1)C(=O)c1cc2c3c(c(N)nc2cc1F)COC3` [Example 363, 4-amino-N-((6-cyclopropyl-3-pyridinyl)methyl)-7-fluoro-N-(2-propanyl)-1,3-dihydrofuro[3,4-c]quinoline-8-carboxamide]: the values for the IC50 in the assay on HCT116 MTAP null cells and in the assay with HCT116 WT cells were 36 nM and 1180 nM, respectively.

Consider `C[C@H](c1ncccc1F)N(Cc1ccc(C(F)(F)F)nn1)C(=O)c1ccc2nc(N)c3c(c2c1)COC3` [Example 442, 4-amino-N-((1R)-1-(3-fluoro-2-pyridinyl)ethyl)-N-((6-(trifluoromethyl)-3-pyridazinyl)methyl)-1,3-dihydrofuro[3,4-c]quinoline-8-carboxamide], for which the concentration for half-maximal inhibition (IC50) in the assay with HCT116 MTAP null cells amounted to 9 nM; in the assay on HCT116 WT cells, 177 nM.

With `CCN(Cc1ccc(Cl)cn1)C(=O)c1ccc2nc(N)c3c(c2c1)CO[C@@H]3C` [Example 421, (3R)-4-amino-N-((5-chloro-2-pyridinyl)methyl)-N-ethyl-3-methyl-1,3-dihydrofuro[3,4-c]quinoline-8-carboxamide], the IC50 in the assay with HCT116 MTAP null cells worked out at 116 nM; in the assay with HCT116 WT cells it was 10000 nM.

`CCN(Cc1ncn(C)n1)C(=O)c1ccc2nc(N)c3c(c2c1)CO[C@@H]3C` [Example 720, (3R)-4-amino-N-ethyl-3-methyl-N-((1-methyl-1H-1,2,4-triazol-3-yl)methyl)-1,3-dihydrofuro[3,4-c]quinoline-8-carboxamide]: the IC50 is 14900 nM in the assay on HCT116 MTAP null cells and greater than 50000 nM in the assay on HCT116 WT cells.

For the molecule `CCN(C(=O)c1ccc2nc(N)c3c(c2c1)COC3)[C@@H](C)c1ccc(C(F)(F)F)cn1` (single isomer, unassigned) [Example 821], the IC50 in the assay on HCT116 MTAP null cells is 4190 nM; in the assay with HCT116 WT cells, greater than 50000 nM.

Take `CN(Cc1ccc(C2CC2)nn1)C(=O)c1cc2c3c(c(N)nc2cc1Cl)COC3` [Example 519, 4-amino-7-chloro-N-((6-cyclopropyl-3-pyridazinyl)methyl)-N-methyl-1,3-dihydrofuro[3,4-c]quinoline-8-carboxamide]: the IC50 in the assay with HCT116 MTAP null cells came out at 187 nM; with HCT116 WT cells it was 14000 nM.

As to `Cn1ncc2c(N)nc3cc(Cl)c(C(=O)N(Cc4ccc(C(F)(F)F)nn4)C4CCC4)cc3c21` [Example 799, 4-amino-7-chloro-N-cyclobutyl-1-methyl-N-((6-(trifluoromethyl)-3-pyridazinyl)methyl)-1H-pyrazolo[4,3-c]quinoline-8-carboxamide], the figures for the IC50 in the assay with HCT116 MTAP null cells and in the assay with HCT116 WT cells were 8 nM and 263 nM, respectively.

With `CC(c1ncc(F)cn1)N(CCOC(F)(F)F)C(=O)c1cc2c3c(c(N)nc2cc1F)COC3` (racemic) [Example 725, 4-amino-7-fluoro-N-((1R)-1-(5-fluoro-2-pyrimidinyl)ethyl)-N-(2-(trifluoromethoxy)ethyl)-1,3-dihydrofuro[3,4-c]quinoline-8-carboxamide and 4-amino-7-fluoro-N-((1S)-1-(5-fluoro-2-pyrimidinyl)ethyl)-N-(2-(trifluoromethoxy)ethyl)-1,3-dihydrofuro[3,4-c]quinoline-8-carboxamide], the results for the 50% inhibitory concentration (IC50) in the assay with HCT116 MTAP null cells and in the assay with HCT116 WT cells were 854 nM and greater than 50000 nM, respectively.

Take `CCN(Cc1ccc(C(F)(F)F)cn1)C(=O)c1ccc2nc(N)c3c(cnn3C)c2c1` [Example 422, 4-amino-N-ethyl-3-methyl-N-((5-(trifluoromethyl)-2-pyridinyl)methyl)-3H-pyrazolo[3,4-c]quinoline-8-carboxamide]: the IC50 with HCT116 MTAP null cells is 6740 nM; in the assay with HCT116 WT cells, 10700 nM.

On to `COC[C@@H](C)N(Cc1ccc(Cl)nn1)C(=O)c1ccc2nc(N)c3c(c2c1)CO[C@@H]3C` [Example 307, (3R)-4-amino-N-((6-chloro-3-pyridazinyl)methyl)-N-((2R)-1-methoxy-2-propanyl)-3-methyl-1,3-dihydrofuro[3,4-c]quinoline-8-carboxamide], for which the half-maximal inhibitory concentration (IC50) is 18 nM in the assay with HCT116 MTAP null cells and 471 nM in the assay with HCT116 WT cells.

In the case of `CN(Cc1ccc(-c2cnn(C(F)(F)F)c2)nn1)C(=O)c1ccc2nc(N)c3cnn(C)c3c2c1` [Example 529, 4-amino-N,1-dimethyl-N-((6-(1-(trifluoromethyl)-1H-pyrazol-4-yl)-3-pyridazinyl)methyl)-1H-pyrazolo[4,3-c]quinoline-8-carboxamide], the IC50 in the assay on HCT116 MTAP null cells turned out to be 887 nM; in the assay on HCT116 WT cells it was 28500 nM.

`CC1(CN(Cc2ccc(C(F)(F)F)cn2)C(=O)c2ccc3nc(N)c4c(c3c2)COC4(C)C)CC1` [Example 341, 4-amino-3,3-dimethyl-N-((1-methylcyclopropyl)methyl)-N-((5-(trifluoromethyl)-2-pyridinyl)methyl)-1,3-dihydrofuro[3,4-c]quinoline-8-carboxamide]: the IC50 in the assay with HCT116 MTAP null cells was determined as 212 nM; with HCT116 WT cells, 3790 nM.

In the case of `C[C@H](C1CC1)N(Cc1ccc(C(F)(F)F)nn1)C(=O)c1cc2c3c(c(N)nc2cc1F)COC3` [Example 814, 4-amino-N-((1R)-1-cyclopropylethyl)-7-fluoro-N-((6-(trifluoromethyl)-3-pyridazinyl)methyl)-1,3-dihydrofuro[3,4-c]quinoline-8-carboxamide], the results for the IC50 in the assay with HCT116 MTAP null cells and with HCT116 WT cells were 44 nM and 1170 nM, respectively.

In the case of `COCC(C)N(Cc1ccc(C(F)(F)F)nn1)C(=O)c1ccc2nc(N)c3c(c2c1)COC3` (racemic) [Example 303, 4-amino-N-((2R)-1-methoxy-2-propanyl)-N-((6-(trifluoromethyl)-3-pyridazinyl)methyl)-1,3-dihydrofuro[3,4-c]quinoline-8-carboxamide and 4-amino-N-((2S)-1-methoxy-2-propanyl)-N-((6-(trifluoromethyl)-3-pyridazinyl)methyl)-1,3-dihydrofuro[3,4-c]quinoline-8-carboxamide], the half-inhibitory concentration (IC50) in the assay with HCT116 MTAP null cells stood at 24 nM; in the assay on HCT116 WT cells it was 574 nM.

With `CCN(C(=O)c1ccc2nc(N)c3c(c2c1)COC3)[C@H](C)c1ccc(C(F)(F)F)cc1F` [Example 742, 4-amino-N-ethyl-N-((1R)-1-(2-fluoro-4-(trifluoromethyl)phenyl)ethyl)-1,3-dihydrofuro[3,4-c]quinoline-8-carboxamide], the 50% inhibitory concentration (IC50) with HCT116 MTAP null cells came out at 66 nM; in the assay with HCT116 WT cells, 2500 nM.

Regarding `C[C@H](c1ncc(C(F)(F)F)cc1F)N(C)C(=O)c1cc2c(cn1)nc(N)c1c2cnn1C` (single isomer, unassigned) [Example 861], the IC50 in the assay on HCT116 MTAP null cells is 205 nM; with HCT116 WT cells it was 13600 nM.

For `Cc1nc(CN(C)C(=O)c2ccc3nc(N)c4c(c3c2)COC4)ccc1Br` [Example 677, 4-amino-N-((5-bromo-6-methyl-2-pyridinyl)methyl)-N-methyl-1,3-dihydrofuro[3,4-c]quinoline-8-carboxamide], the half-maximal inhibitory concentration (IC50) in the assay with HCT116 MTAP null cells was 243 nM; with HCT116 WT cells, greater than 10000 nM.

For `Nc1nc2cnc(C(=O)N(Cc3ccc(Br)nn3)CC3CC3)cc2c2c1COC2` [Example 671, 4-amino-N-((6-bromo-3-pyridazinyl)methyl)-N-(cyclopropylmethyl)-1,3-dihydrofuro[3,4-c][1,7]naphthyridine-8-carboxamide], the IC50 in the assay on HCT116 MTAP null cells came to 80 nM; in the assay with HCT116 WT cells, 3970 nM.
